According to US12479847B2 (DANA-FARBER CANCER INSTITUTE, INC., priority 2019, dated 2025):

Tests used:
Test in all cases: KINOMEscan (ScanMAX) kinase profiling
Format in all cases: binding
panel of 468 kinases [1] = biological target: T1, panel of 468 kinases (Homo sapiens, UniProt P46734); conditions: MEK3; 1 μM; read-out: % control
T1 construct: purchased KINOMEscan (ScanMAX) service
T1 sequence (P46734 1-347): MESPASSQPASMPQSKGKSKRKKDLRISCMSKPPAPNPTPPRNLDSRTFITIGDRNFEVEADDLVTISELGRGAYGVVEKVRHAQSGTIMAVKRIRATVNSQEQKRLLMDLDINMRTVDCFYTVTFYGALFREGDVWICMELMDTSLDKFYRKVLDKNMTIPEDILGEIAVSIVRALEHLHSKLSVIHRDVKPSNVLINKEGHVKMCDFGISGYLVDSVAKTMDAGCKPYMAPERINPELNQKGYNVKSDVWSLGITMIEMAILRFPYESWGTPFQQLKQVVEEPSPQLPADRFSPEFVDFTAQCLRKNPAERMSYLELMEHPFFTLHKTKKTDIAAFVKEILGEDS

panel of 468 kinases [2] = biological target: T2, panel of 468 kinases (Homo sapiens, UniProt P49761); conditions: CLK3; 1 μM; read-out: % control
T2 construct: purchased KINOMEscan (ScanMAX) service

panel of 468 kinases [3] = biological target: T3, panel of 468 kinases (Homo sapiens, UniProt Q16620); conditions: TRKB; 1 μM; read-out: % control
T3 construct: purchased KINOMEscan (ScanMAX) service

panel of 468 kinases [4] = biological target: T4, panel of 468 kinases (Homo sapiens, UniProt P0C1S8); conditions: WEE2; 1 μM; read-out: % control
T4 construct: purchased KINOMEscan (ScanMAX) service

panel of 468 kinases [5] = biological target: T5, panel of 468 kinases (Homo sapiens, UniProt O94806); conditions: PRKD3; 1 μM; read-out: % control
T5 construct: purchased KINOMEscan (ScanMAX) service
T5 sequence (O94806 1-890): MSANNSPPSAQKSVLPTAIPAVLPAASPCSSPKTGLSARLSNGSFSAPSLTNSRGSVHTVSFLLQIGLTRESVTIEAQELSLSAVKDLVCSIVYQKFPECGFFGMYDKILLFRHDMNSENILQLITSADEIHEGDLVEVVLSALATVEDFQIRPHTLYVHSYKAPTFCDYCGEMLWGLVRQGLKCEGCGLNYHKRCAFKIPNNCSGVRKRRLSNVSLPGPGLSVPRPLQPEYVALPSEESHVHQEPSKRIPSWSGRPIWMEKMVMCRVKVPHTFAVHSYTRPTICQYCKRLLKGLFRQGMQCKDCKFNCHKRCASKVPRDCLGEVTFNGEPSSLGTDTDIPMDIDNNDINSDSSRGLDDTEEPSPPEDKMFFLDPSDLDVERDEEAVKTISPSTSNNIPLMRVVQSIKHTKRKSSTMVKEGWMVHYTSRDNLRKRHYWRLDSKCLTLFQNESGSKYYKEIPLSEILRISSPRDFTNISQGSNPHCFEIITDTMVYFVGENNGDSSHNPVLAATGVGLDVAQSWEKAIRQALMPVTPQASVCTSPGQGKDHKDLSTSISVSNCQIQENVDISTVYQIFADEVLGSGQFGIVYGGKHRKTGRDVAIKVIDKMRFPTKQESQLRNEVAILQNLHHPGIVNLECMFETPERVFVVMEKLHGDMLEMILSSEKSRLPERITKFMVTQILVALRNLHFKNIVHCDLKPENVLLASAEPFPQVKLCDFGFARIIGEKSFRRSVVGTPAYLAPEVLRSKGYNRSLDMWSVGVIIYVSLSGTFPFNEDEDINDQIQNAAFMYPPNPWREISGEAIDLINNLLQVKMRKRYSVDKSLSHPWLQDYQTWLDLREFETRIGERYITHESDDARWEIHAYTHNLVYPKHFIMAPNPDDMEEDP

panel of 468 kinases [6] = biological target: T6, panel of 468 kinases (Homo sapiens, UniProt P54762); conditions: EPHB1; 1 μM; read-out: % control
T6 construct: purchased KINOMEscan (ScanMAX) service
T6 sequence (P54762 18-984): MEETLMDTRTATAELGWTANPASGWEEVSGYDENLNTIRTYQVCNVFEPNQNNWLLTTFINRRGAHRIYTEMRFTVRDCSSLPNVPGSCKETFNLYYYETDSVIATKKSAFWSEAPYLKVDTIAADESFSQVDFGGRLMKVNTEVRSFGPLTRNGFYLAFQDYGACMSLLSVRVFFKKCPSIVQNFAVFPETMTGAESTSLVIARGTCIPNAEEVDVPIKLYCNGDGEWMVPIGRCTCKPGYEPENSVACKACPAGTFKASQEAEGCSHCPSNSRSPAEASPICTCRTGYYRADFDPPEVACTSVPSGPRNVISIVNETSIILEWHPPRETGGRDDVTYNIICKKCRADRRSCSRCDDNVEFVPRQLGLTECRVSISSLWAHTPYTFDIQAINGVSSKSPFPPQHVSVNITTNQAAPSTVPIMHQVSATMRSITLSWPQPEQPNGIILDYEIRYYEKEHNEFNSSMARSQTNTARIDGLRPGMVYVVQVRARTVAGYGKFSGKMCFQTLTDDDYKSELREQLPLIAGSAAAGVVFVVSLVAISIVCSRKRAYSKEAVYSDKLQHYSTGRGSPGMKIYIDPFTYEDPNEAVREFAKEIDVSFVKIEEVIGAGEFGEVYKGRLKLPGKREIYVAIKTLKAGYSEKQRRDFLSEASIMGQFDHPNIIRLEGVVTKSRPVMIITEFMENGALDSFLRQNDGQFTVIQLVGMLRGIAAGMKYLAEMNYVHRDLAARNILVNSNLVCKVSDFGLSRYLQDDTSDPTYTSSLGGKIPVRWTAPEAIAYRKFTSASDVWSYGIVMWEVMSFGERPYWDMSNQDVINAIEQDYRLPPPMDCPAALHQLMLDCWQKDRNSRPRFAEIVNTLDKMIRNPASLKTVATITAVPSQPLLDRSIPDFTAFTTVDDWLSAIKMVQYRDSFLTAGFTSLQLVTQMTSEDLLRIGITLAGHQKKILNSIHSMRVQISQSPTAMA

T3 sequence (Q16620 32-822): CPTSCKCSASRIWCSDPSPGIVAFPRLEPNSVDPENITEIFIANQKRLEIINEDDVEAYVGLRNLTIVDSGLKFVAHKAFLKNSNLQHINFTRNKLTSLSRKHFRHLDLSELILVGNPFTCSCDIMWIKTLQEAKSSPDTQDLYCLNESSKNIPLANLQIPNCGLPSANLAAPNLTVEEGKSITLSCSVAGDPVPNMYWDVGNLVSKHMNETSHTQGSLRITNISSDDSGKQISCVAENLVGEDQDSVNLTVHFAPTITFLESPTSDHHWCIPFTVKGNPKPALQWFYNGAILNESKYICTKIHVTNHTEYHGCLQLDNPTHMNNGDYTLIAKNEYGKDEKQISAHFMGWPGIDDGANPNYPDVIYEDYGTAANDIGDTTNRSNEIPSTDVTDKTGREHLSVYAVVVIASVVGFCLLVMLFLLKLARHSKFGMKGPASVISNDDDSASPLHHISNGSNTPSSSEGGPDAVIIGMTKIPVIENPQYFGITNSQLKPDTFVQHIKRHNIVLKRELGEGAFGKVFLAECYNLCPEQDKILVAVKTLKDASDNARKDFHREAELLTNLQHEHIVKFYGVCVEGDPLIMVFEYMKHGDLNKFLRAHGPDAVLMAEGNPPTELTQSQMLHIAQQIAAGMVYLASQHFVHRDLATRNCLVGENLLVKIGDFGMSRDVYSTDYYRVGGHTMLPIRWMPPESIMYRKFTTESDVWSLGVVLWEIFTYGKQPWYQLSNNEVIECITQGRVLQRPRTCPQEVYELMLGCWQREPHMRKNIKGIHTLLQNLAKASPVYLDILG
T2 sequence (P49761 whole entry): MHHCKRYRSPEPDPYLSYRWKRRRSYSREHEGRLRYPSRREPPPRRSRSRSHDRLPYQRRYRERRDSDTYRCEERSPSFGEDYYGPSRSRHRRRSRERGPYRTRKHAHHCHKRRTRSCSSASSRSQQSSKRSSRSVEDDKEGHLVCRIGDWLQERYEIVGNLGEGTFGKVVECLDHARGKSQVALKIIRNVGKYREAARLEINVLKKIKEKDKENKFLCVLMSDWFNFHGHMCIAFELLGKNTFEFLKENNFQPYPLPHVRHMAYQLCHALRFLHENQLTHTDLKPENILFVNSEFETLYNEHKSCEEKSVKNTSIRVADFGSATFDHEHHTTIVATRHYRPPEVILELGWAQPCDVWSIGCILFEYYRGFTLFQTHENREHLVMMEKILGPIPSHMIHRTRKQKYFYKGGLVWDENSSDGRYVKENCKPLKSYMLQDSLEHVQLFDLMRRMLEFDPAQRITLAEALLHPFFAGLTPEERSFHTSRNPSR
T4 sequence (P0C1S8 whole entry): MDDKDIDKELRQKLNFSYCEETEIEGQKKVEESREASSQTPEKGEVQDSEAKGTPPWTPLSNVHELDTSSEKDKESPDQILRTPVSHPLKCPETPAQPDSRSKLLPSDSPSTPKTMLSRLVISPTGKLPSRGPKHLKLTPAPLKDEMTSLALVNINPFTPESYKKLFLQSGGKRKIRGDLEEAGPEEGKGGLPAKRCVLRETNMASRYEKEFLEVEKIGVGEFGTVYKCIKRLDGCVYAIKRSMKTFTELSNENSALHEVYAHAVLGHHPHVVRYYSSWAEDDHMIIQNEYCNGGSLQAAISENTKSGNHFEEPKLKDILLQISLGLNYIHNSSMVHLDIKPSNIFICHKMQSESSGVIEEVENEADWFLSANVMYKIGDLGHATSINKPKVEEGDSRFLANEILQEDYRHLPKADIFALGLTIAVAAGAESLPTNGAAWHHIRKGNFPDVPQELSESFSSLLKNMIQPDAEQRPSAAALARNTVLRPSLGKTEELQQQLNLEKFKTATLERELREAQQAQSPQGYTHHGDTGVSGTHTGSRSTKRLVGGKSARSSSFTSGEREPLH

Row | Compound | remaining binding at 1 µM (panel of 468 kinases [1]) [%] | remaining binding at 1 µM (panel of 468 kinases [2]) [%] | remaining binding at 1 µM (panel of 468 kinases [3]) [%] | remaining binding at 1 µM (panel of 468 kinases [4]) [%] | remaining binding at 1 µM (panel of 468 kinases [5]) [%] | remaining binding at 1 µM (panel of 468 kinases [6]) [%]
1 | CNc1nc(Nc2ccc(S(=O)(=O)N3CCC(N4CCOCC4)CC3)cc2OC)nc2[nH]cc(Cl)c12 [Compound 12, 5-chloro-N2-(2-methoxy-4-((4-morpholinopiperidin-1-yl)sulfonyl)phenyl)-N4-methyl-7H-pyrrolo[2,3-d]pyrimidine-2,4-diamine] | 26 | 77 | 100 | 100 | 28 | 88
2 | CNc1nc(Nc2ccc(C(=O)N3CCC(N4CCOCC4)CC3)c3c2OCO3)nc2[nH]cc(Cl)c12 [Compound 75, (7-((5-chloro-4-(methylamino)-7H-pyrrolo[2,3-d]pyrimidin-2-yl)amino)benzo[d][1,3]dioxol-4-yl)(4-morpholinopiperidin-1-yl)methanone] | 2.4 | 58 | 100 | 100 | 4 | 100
3 | CNc1nc(Nc2ccc(P3(=O)CCN(C4CCOCC4)CC3)cc2OC)nc2[nH]cc(Cl)c12 [Compound 77, 4-(4-((5-chloro-4-(methylamino)-7H-pyrrolo[2,3-d]pyrimidin-2-yl)amino)-3-methoxyphenyl)-1-(tetrahydro-2H-pyran-4-yl)-1,4-azaphosphinane 4-oxide] | 9.4 | 93 | 100 | 100 | 13 | 100
